In data set [1] the test system is PD-1/PD-L1-mediated T cell activation inhibitory signal. In words: CHO-PD-L1-CD3L / Jurkat-PD-1-NFAT co-culture luciferase reporter assay. It is filed as cell-based. The following applies: Homo sapiens, co-culture 6 h, read-out: EC50 blocking PD-1/PD-L1-mediated T cell activation inhibitory signal. As for the experimental part:
In order to detect the effect of the interaction between PD-1 and PD-L1 on T cell activation signals in the immune response, CHO-PD-L1-CD3L cells stably expressing human PD-L1 molecules and anti-CD3 single-chain antibody (ScFv) and Jurkat-PD-1-NFAT cells stably expressing human PD-1 molecule and NFAT reporter gene were constructed. When the two kinds of cells were co-incubated, the binding of anti-CD3ScFv on the surface of CHO cells and the membrane CD3 molecules of Jurkat cells would transmit an activation signal to Jurkat cells, but simultaneously, the binding of PD-L1 on the surface of CHO cells and PD-1 molecules on the surface of Jurkat cells would transmit an inhibitory signal inward to prevent expression of the luciferase reporter gene. When immune checkpoint antibodies or small molecule inhibitors were added, the binding of PD-1 and PD-L1 was blocked, the NFAT pathway activated by T cell activation signal mediated by cross-linking of CD3ScFv antibody and CD3 was no longer affected by the inhibitory signal, and the downstream luciferase reporter gene started to be expressed. A chemiluminescent signal proportional to reporter gene activation was detected by adding a catalytic substrate.
CHO-PD-L1-CD3L cells expressing human PD-L1 molecule and anti-CD3 single-chain antibody (ScFv) and Jurkat-PD-1-NFAT cells stably expressing human PD-1 molecule and NFAT reporter gene were independently constructed and provided by Dr. Chen Bo (KeyMed Bioscience (Chengdu) Co., Ltd.). Puromycin (Cat #540411) and Hygromycin B (Cat #V900372) for stable culture of transfected cells were purchased from Sigma, PMA (Cat #P1585) was purchased from Sigma, anti-human PD-L1 antibody (Cat #GMP-A066) was purchased from Novoprotein Company. Luciferase substrate solution (Cat #E6485) and luciferase-specific cell lysis solution 5× (Cat #E1531) were purchased from Promega. Fluorescence detection instrument Tecan (Spark 10M) was purchased from Switzerland Tecan Company.
(1) The day before the experiment, 100 μL of CHO-PD-L1-CD3L cells were inoculated in each well of a 96-well cell culture plate (about 4×10^4 cells/well) with a medium of DMEM/F12 containing 10% FBS, 8 μg/mL puromycin and 200 μg/mL hygromycin B, and cultured overnight at 37° C.
(2) The test compounds were diluted with 0.1% PBST into different concentration gradients, added into 96-well plates, and pre-incubated for 30 min. Jurkat-PD-1-NFAT cell count was adjusted to 2×10^5 cells/mL with the RPMI 1640 complete medium containing 10% FBS, […]8 μg/mL puromycin and 200 μg/mL hygromycin B. 100 ng/mL PMA (the stock solution was prepared with DMSO to a concentration of 10 mg/mL) was added to amplify T cell activation signal. 100 μL of the above Jurkat-PD-1-NFAT cells was added to each well of the 96-well plate for co-culture.
(3) When detecting the reaction, a control group was provided, including a solvent control without adding test compounds and a positive control with addition of anti-human PD-1 antibody as the experimental system. All detections were performed with duplicates.
(4) After continuous incubation at 37° C. for 6 h, 40 μL of 5× cell lysate was directly added, and mixed well. The plate was placed at room temperature for 10 min to completely lyse the cells. 50 μL of the lysed cell solution was transferred to a fluorescence detection plate, and added with 30 μL of luciferase substrate solution. The chemiluminescence detection program on the fluorescence detector was immediately selected for detection.
(5) The inhibition rate of T cell activation signal at the cellular level of the test compounds was calculated as follows: Inhibition rate of T cell activation signal (%)=(the original value of chemiluminescence in the detection well−solvent control)/(the highest original value of chemiluminescence detected in the compound detection well−solvent control)×100%. […]

The nature of data set [2]: Tumor tissue distribution assay in MC38-PD-L1 tumor-bearing mice. It is filed as in vivo, B-hPD-1/hPD-L1 humanized mice. The conditions noted are these: 50 mg/kg oral once/day. An excerpt: 16 B-hPD-1/hPD-L1 humanized female mice, aged 6-8 weeks were purchased from Biocytogen Jiangsu Gene Biotechnology Co., Ltd. After 1 week of adaptation, the mice were subcutaneously inoculated with MC38-PD-L1 cells at 2×10^6 cells/site. After the tumor grew to about […], the mice were divided into 4 groups, 4 mice in each group. The test compounds were formulated in a vehicle containing 5% DMSO, 60% PEG400 and 35% purified water, including I-1 and 3 control molecules Example 17, Compound 14 (INCB086550), and Example 180. The compounds were orally administered at 50 mg/kg, once/day. The blood and tumor tissue were collected 4 h and 24 h after administration on the 18th day. A certain amount of tissue was weighed, and added with phosphate-buffered saline (PBS) solution for homogenization. After the sample was processed, it was analyzed by LC-MS/MS to determine the concentration of the compound in plasma and tissue.

Data set [3] in a line: Pharmacokinetic assay after repeated oral administration. The data set is classed as in vivo, B-hPD-1/hPD-L1 mice. The conditions noted are these: female, B-hPD-1/hPD-L1, mouse; plasma, 50 mg/kg oral once a day, after administration on the 18th day. As for the experimental part:
Twenty-four female B-hPD-1/hPD-L1 mice aged 6-8 weeks were purchased from Biocytogen Jiangsu Gene Biotechnology Co., Ltd. The mice were randomly divided into 4 groups, 6 mice in each group. The test compounds were prepared in a vehicle containing 5% DMSO, 60% PEG400 and 35% purified water, including I-1 and 3 control molecules Example 17, Compound 14 (INCB086550), and Example 180. The compounds were administered orally at 50 mg/kg, once a day. The blood was collected alternately through the fundus venous plexus after the administration on the 18th day. The blood collection time points were 15 min, 30 min, 1 h, 2 h, 4 h, 8h, 24 h and 32h. About 0.1 mL of blood was collected in a centrifuge tube (anticoagulated with sodium heparin), and centrifuged at 5000 rpm for 5 min. Then the plasma was separated, and frozen at −20° C. for later detection. After the plasma samples were processed, the concentration of the compounds in the plasma was determined by liquid chromatography-mass spectrometry (LC-MS/MS). The pharmacokinetic parameters were calculated using Phoenix WinNonlin 7.0.

The source of these data is patent publication US20260234164A1, “BIPHENYL COMPOUND AS IMMUNOMODULATOR, PREPARATION METHOD THEREFOR AND USE THEREOF” (SHENZHEN CHIPSCREEN BIOSCIENCES CO., LTD., priority 2021, published 2026).

One may read the AUC(0-t) as the area under the concentration-time curve up to a stated or last time point. A lower AUC(0-t) goes with less exposure. In general, MRT refers to a mean duration of stay, worked out from the concentration-time curve. Usually half-life stands for how long it takes for the measured level to halve. Low values mean fast loss, high ones slow loss. For `[2H]C([2H])([2H])OCC12CCC(CCN3CCc4c(nc(C(=O)Nc5cccc(-c6cccc(NC(=O)c7nc8c(n7C)CCN(CCC79CCC(C(=O)O)(CC7)C9)C8)c6Cl)c5Cl)n4C)C3)(CC1)C2` [Compound I-1, 4-(2-(2-((2,2′-dichloro-3′-(5-(2-(4-((methoxy-d3)methyl)bicyclo[2.2.1]heptane-1-yl)ethyl)-1-methyl-4,5,6,7-tetrahydro-1H-imidazo[4,5-c]pyridine-2-carboxamido)-[1,1′-biphenyl]-3-yl)carbamoyl)-1-methyl-1,4,6,7-tetrahydro-5H-imidazo[4,5-c]pyridin-5-yl)ethyl)bicyclo[2.2.1]heptane-1-carboxylic acid], the EC50 in data set [1] stood at 13.8 nM. In addition, the “Ratio of I-1 to control molecule (tumor tissue concentration)” value in data set [2] (4 h after administration on the 18th day) is recorded as 1.0. In data set [2] (24 h after administration on the 18th day), the “Ratio of I-1 to control molecule (tumor tissue concentration)” value is 1.0. Besides, in data set [2] (female, B-hPD-1/hPD-L1 humanized, mouse, tumor tissue, 4 h after administration on the 18th day), the concentration at 4 h is 39200 ng/g. In data set [2] (female, B-hPD-1/hPD-L1 humanized, mouse, tumor tissue, 24 h after administration on the 18th day), this molecule yielded a concentration at 24 h of 27200 ng/g. Besides, in data set [3], the AUC(0-t) was 123 µg·h/mL, the MRT stood at 13.5 h and the half-life was 10.3 h.

Regarding `[2H]C([2H])([2H])OCC12CCC(CCN3CCc4c(nc(C(=O)Nc5cccc(-c6cccc(NC(=O)c7nc8c(n7C([2H])([2H])[2H])CCN(CCC79CCC(C(=O)O)(CC7)C9)C8)c6C)c5Cl)n4C([2H])([2H])[2H])C3)(CC1)C2` [Compound I-11, 4-(2-(2-((2′-chloro-3′-(5-(2-(4-((methoxy-d3)methyl)bicyclo[2.2.1]heptane-1-yl)ethyl)-1-(methyl-d3)-4,5,6,7-tetrahydro-1H-imidazo[4,5-c]pyridine-2-carboxamido)-2-methyl-[1,1′-biphenyl]-3-yl)carbamoyl)-1-(methyl-d3)-1,4,6,7-tetrahydro-5H-imidazo[4,5-c]pyridin-5-yl)ethyl)bicyclo[2.2.1]heptane-1-carboxylic acid], the EC50 in data set [1] stood at 58.4 nM.

As to `[2H]C([2H])([2H])n1c(C(=O)Nc2cccc(-c3cccc(NC(=O)c4nc5c(n4C([2H])([2H])[2H])CCN(CCC46CCC(COC)(CC4)C6)C5)c3Cl)c2C)nc2c1CCN(CCC13CCC(C(=O)O)(CC1)C3)C2` [Compound I-12, 4-(2-(2-((2′-chloro-3′-(5-(2-(4-(methoxymethyl)bicyclo[2.2.1]heptane-1-yl)ethyl)-1-(methyl-d3)-4,5,6,7-tetrahydro-1H-imidazo[4,5-c]pyridine-2-carboxamido)-2-methyl-[1,1′-biphenyl]-3-yl)carbamoyl)-1-(methyl-d3)-1,4,6,7-tetrahydro-5H-imidazo[4,5-c]pyridin-5-yl)ethyl)bicyclo [2.2.1]heptane-1-carboxylic acid], the EC50 in data set [1] was found to be 47.9 nM.

`[2H]c1c([2H])c(NC(=O)c2nc3c(n2C([2H])([2H])[2H])CCN(CCC24CCC(COC([2H])([2H])[2H])(CC2)C4)C3)c(Cl)c(-c2c([2H])c([2H])c([2H])c(NC(=O)c3nc4c(n3C([2H])([2H])[2H])CCN(CCC35CCC(C(=O)O)(CC3)C5)C4)c2Cl)c1[2H]` [Compound I-13, 4-(2-(2-((2,2′-dichloro-3′-(5-(2-(4-((methoxy-d3)methyl)bicyclo[2.2.1]heptane-1-yl)ethyl)-1-(methyl-d3)-4,5,6,7-tetrahydro-1H-imidazo[4,5-c]pyridine-2-carboxamido)-[1,1′-biphenyl]-3-yl-4,4′, 5,5′,6,6′-d6)carbamoyl)-1-(methyl-d3)-1,4,6,7-tetrahydro-5H-imidazo[4,5-c]pyridin-5-yl)ethyl)bicyclo[2.2.1]heptane-1-carboxylic acid]: the EC50 in data set [1] was determined as 26.2 nM.
